This is an account of results in PubChem BioAssay AID1159565 (GlaxoSmithKline (GSK), 2015).

The source made the active and inactive calls. No rule for the calls is given here.

The test system of the assay is T. cruzi-infected H9C2 cardiomyocytes, high-content imaging. As to the kind of experiment: anti-T. cruzi activity in infected cardiomyocytes – imaging, H9C2 host cardiomyocytes, host toxicity (AID 1159565).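 Also: infected cells incubated 72 h after plating.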
Where [1] appears, read: measured here: H9C2 host cell toxicity.
[2] abbreviates: measured here: amastigotes per cell.

As a reminder, the IC50 is the concentration at which inhibition is half-maximal. Consider `COc1ccc(CN2CCCCC2c2nc(-c3cccnc3)no2)cc1` (stereo not given), for which the IC50 is 790 nM. Moreover, under setting [1], the IC50 is more than 50000 nM. Moreover, the IC50 under setting [2] came to 630 nM.
The like results for `COc1ccc2ncc(F)c(NC(=O)C3(O)CCC(NCc4ccc5c(c4)OCCO5)CC3)c2n1` (stereo not given) were, in that order, 130 nM, 32000 nM and 160 nM.
Consider `Cc1cc2nc(CN(C)Cc3ncccc3C)[nH]c2cc1C`, for which the IC50 is 1000 nM. The molecule further returned an IC50 under setting [1] of 13000 nM. The molecule further yielded an IC50 under setting [2] of 500 nM.
The like results for `COc1cccc(CN(C)Cc2nc(N)c3c(C)c(C)sc3n2)c1` were, in that order, 16000 nM, more than 50000 nM and 16000 nM.
For the molecule `O=S1N=C(NCCCN(Cc2ccc(F)cc2)c2ccccn2)C(NCc2ccncc2)=N1` (stereo not given), the IC50 was 50000 nM. The molecule further gave an IC50 under setting [1] of more than 50000 nM. Under setting [2], this molecule came in with an IC50 of 40000 nM.
Taken in the same sequence, the figures for `CN1CCC(N(C)c2nccc(N3CCN(C(=O)c4cccc(-c5cccnc5)c4)CC3)n2)CC1` were 1300 nM, 7900 nM and 1000 nM.
In the case of `CCOC(=O)c1noc(N)c1-c1ccccc1`, the IC50 was > 50000 nM (inactive). The molecule further yielded an IC50 under setting [1] of more than 50000 nM. Under setting [2], this molecule had an IC50 of more than 50000 nM.
For `O=c1[nH]cnc2c([C@@H]3O[C@H](CO)[C@@H](O)[C@H]3O)[nH]nc12`, the IC50 was 500 nM. The IC50 under setting [1] is more than 50000 nM. For the same molecule, the IC50 under setting [2] amounted to 320 nM.
On to `Cn1nc(C(=O)N2CCc3ccccc32)c2c1CCS(=O)(=O)C2`, for which the IC50 is 13000 nM. This molecule also displayed an IC50 under setting [1] of more than 50000 nM. The IC50 under setting [2] worked out at 7900 nM.
Taken in the same sequence, the figures for `CC(C)c1cc(C(=O)N2CCCC(c3cc4ncccc4[nH]3)C2)on1` (stereo not given) were 3200 nM, more than 50000 nM and 1000 nM.
The like results for `CCCc1cc(C(=O)Nc2ncc(-c3cccc(Br)c3)n2C)n[nH]1` were, in that order, 4000 nM, more than 50000 nM and 2500 nM.
`CS(=O)(=O)NC1CCC(Oc2cc3cnccc3cc2-c2ccsc2)CC1` (stereo not given): the IC50 was 160 nM. Moreover, the IC50 under setting [1] was more than 50000 nM. This molecule displayed an IC50 under setting [2] of 100 nM.
The like results for `Cc1cc2ncn(-c3ccc([N+](=O)[O-])cc3C#N)c2cc1C` were, in that order, 2000 nM, more than 50000 nM and 790 nM.
Regarding `Clc1ccc(OCCN2CCCCC2c2cccnc2)c(Cl)c1` (stereo not given), the IC50 is 200 nM. The concentration for half-maximal inhibition (IC50) under setting [1] was more than 50000 nM. Under setting [2], this molecule came in with an IC50 of 160 nM.
`CC1CCCN(S(=O)(=O)c2ccc(C(=O)Nc3nc(-c4ccccn4)cs3)cc2)C1` (stereo not given): the IC50 is 500 nM. Further, the IC50 under setting [1] came out at 3200 nM. This molecule had an IC50 under setting [2] of 250 nM.
As to `CNc1nc(C)nc(N2CCc3cc(C(=O)NCc4ccc(-c5nccn5C)cc4Cl)ccc32)n1`, the IC50 is 13000 nM. For the same molecule, under setting [1], the IC50 stood at 50000 nM. The IC50 under setting [2] worked out at 5000 nM.
Taken in the same sequence, the figures for `CC1(C)CCC(=Cc2ccc(Cl)cc2)CC1(O)Cn1ccnc1` (stereo not given) were 7.9 nM, 32000 nM and 5 nM.
For `O=C(c1cnn(-c2ccccc2)n1)N1CCCC(n2ccnc2)C1` (stereo not given), the IC50 is 79 nM. Besides, the IC50 under setting [1] is more than 50000 nM. The molecule also displayed an IC50 under setting [2] of 63 nM.
Consider `CN(C)S(=O)(=O)c1ccc(-c2cnc(N)c(-c3nc4ccc(F)cc4[nH]3)c2)cc1`, for which the IC50 is > 50000 nM (inactive). Further, the IC50 under setting [1] came to 1300 nM. Under setting [2], this molecule showed an IC50 of more than 50000 nM.
The like results for `CN1CCCN(C(=O)c2ccc(N3CCCC3)cc2Cl)CC1` were, in that order, 1000 nM, more than 50000 nM and 630 nM.
For `O=S(=O)(c1ccccc1C(F)(F)F)N1CCN(Cc2ccc(-n3ccnc3)cc2)CC1`, the IC50 is 250 nM. The molecule further showed an IC50 under setting [1] of more than 50000 nM. The molecule further came in with an IC50 under setting [2] of 200 nM.
Taken in the same sequence, the figures for `O=c1cc(NCCCNC2CCOc3c(I)cc(Cl)cc32)[nH]c2ccccc12` (stereo not given) were 320 nM, 25000 nM and 160 nM.
As to `CCOc1ccc(NC(=O)C=Cc2ccc(CC)o2)cc1`, the IC50 was 25000 nM. Under setting [1], the IC50 is more than 50000 nM. The molecule also showed an IC50 under setting [2] of 16000 nM.
Take `N#Cc1cccc(Cc2cc(Nc3cc(C4CC4)[nH]n3)nc(N3CC[C@H]3C(N)=O)n2)c1`: the IC50 is 4000 nM. The same molecule displayed an IC50 under setting [1] of 4 nM. For the same molecule, the IC50 under setting [2] turned out to be 1000 nM.
Taken in the same sequence, the figures for `COc1cccc(Nc2cc(C)nc(-c3ccccn3)n2)c1` were 13000 nM, 5000 nM and 7900 nM.
Regarding `O=c1ccn(-c2ccc([N+](=O)[O-])cc2Cl)c2ccc(F)cc12`, the IC50 was 4000 nM. For the same molecule, the IC50 under setting [1] was more than 50000 nM. The molecule further had an IC50 under setting [2] of 1300 nM.
Consider `O=[N+]([O-])c1ccc(C2=CC(c3ccccc3)=NCCN2)cc1`, for which the IC50 is 1000 nM. Under setting [1], this molecule registered an IC50 of 32000 nM. Further, the IC50 under setting [2] worked out at 250 nM.
The like results for `O=C(Nc1nc2ccccc2[nH]1)c1ccc2nc[nH]c2c1` were, in that order, > 50000 nM (inactive), more than 50000 nM and 50000 nM.
Take `Cc1nn(-c2nc3ccccc3s2)c2c1C(c1ccc(OCC(N)=O)cc1)SCC(=O)N2` (stereo not given): the IC50 was > 50000 nM (inactive). This molecule registered an IC50 under setting [1] of more than 50000 nM. Besides, the IC50 under setting [2] was more than 50000 nM.
Take `CS(=O)(=O)c1cccc(CNC(=O)c2cncc(N3CCN(c4ccc(F)cc4)CC3)c2)c1`: the IC50 is 400 nM. This molecule also registered an IC50 under setting [1] of more than 50000 nM. The molecule also registered an IC50 under setting [2] of 250 nM.
With `Cc1c(C(=O)NCCCCn2ccnc2)oc2c(C)cccc12`, the IC50 is 500 nM. This molecule also came in with an IC50 under setting [1] of more than 50000 nM. Besides, under setting [2], the IC50 was found to be 500 nM.
Consider `COc1cnc2ccc(=O)n(CCN3CCC(NC(=O)Cc4ccc(Cl)c(Cl)c4)CC3)c2c1`, for which the IC50 was 400 nM. Besides, the 50% inhibitory concentration (IC50) under setting [1] came out at 6300 nM. Under setting [2], the IC50 was 160 nM.
As for `O=C(c1cccc(Cl)c1Cl)N1CCn2c1nc(-c1ccncc1)cc2=O`, the IC50 was 320 nM. Moreover, the IC50 under setting [1] is more than 50000 nM. Under setting [2], this molecule registered an IC50 of 320 nM.
With `Cc1ccc(S(=O)(=O)Nc2ccc(CN3CCN(C(=O)c4cccc(C)c4)CC3)cc2)cc1`, the IC50 is 320 nM. The molecule also registered an IC50 under setting [1] of more than 50000 nM. Under setting [2], this molecule displayed an IC50 of 320 nM.
Take `COc1ccc(S(=O)(=O)Nc2ccc(CN3CCN(C(=O)c4cccc(C#N)c4)CC3)cc2)cc1`: the IC50 was 1000 nM. In addition, the IC50 under setting [1] was more than 50000 nM. Under setting [2], the IC50 is 790 nM.
Taken in the same sequence, the figures for `CS(=O)(=O)c1ccc(Nc2nccc(Nc3n[nH]c4ccc(F)cc34)n2)c(F)c1` were 32000 nM, 16000 nM and 4000 nM.
For `COc1ccc2ncc(Cl)c(CCN3CC[C@H](NCc4cc5c(cn4)OCS5)[C@@H](O)C3)c2n1`, the IC50 is 160 nM. This molecule also returned an IC50 under setting [1] of 10000 nM. Besides, the 50% inhibitory concentration (IC50) under setting [2] was found to be 100 nM.
For the molecule `Cc1ccc(Nc2nc(N)nc(CNC(c3nc4ccccc4[nH]3)C(C)C)n2)cc1` (stereo not given), the IC50 was 7900 nM. For the same molecule, the IC50 under setting [1] is more than 50000 nM. The IC50 under setting [2] was determined as 5000 nM.
On to `COc1cc(C2SCC(=O)Nc3c2c(C)nn3-c2nc3ccccc3s2)cc(OC)c1O` (stereo not given), for which the IC50 is > 50000 nM (inactive). Besides, the IC50 under setting [1] was more than 50000 nM. For the same molecule, under setting [2], the IC50 was more than 50000 nM.
With `COc1cc(C(C)C)c(S(C)(=O)=O)cc1C(=O)N1CCN(c2ccccc2Cl)CC1`, the IC50 was 2500 nM. In addition, the IC50 under setting [1] worked out at 20000 nM. This molecule also registered an IC50 under setting [2] of 2000 nM.
Taken in the same sequence, the figures for `CN(C)CCOc1ccc(N2CCN(S(=O)(=O)c3ccc(Cl)cc3)CC2)cc1` were 630 nM, more than 50000 nM and 500 nM.
Taken in the same sequence, the figures for `CCOc1cnn(C)c(=O)c1Nc1ccc(C(=O)NCc2ccc(F)cc2)cc1` were 100 nM, more than 50000 nM and 130 nM.
For `O=c1[nH]ccc2ccc(-c3ccncc3)cc12`, the IC50 is 250 nM. The IC50 under setting [1] is more than 50000 nM. Moreover, the IC50 under setting [2] was 250 nM.
As for `Cn1ccnc1-c1nc(NCc2ccccc2Cl)cc(C2CC2)n1`, the IC50 was 790 nM. This molecule also came in with an IC50 under setting [1] of 630 nM. The molecule also gave an IC50 under setting [2] of 790 nM.
For `CS(=O)(=O)NC1CCC(Nc2ncc(Br)c(Nc3ccccc3C(N)=O)n2)CC1` (stereo not given), the IC50 is 5000 nM. Further, under setting [1], the IC50 stood at 500 nM. For the same molecule, the IC50 under setting [2] is 2000 nM.
As for `CCN(CC)c1ccc(S(=O)(=O)N(CC)CC)c2nonc12`, the IC50 is 50000 nM. This molecule gave an IC50 under setting [1] of more than 50000 nM. The IC50 under setting [2] worked out at 20000 nM.
`O=c1[nH]c(C=Cc2cccc(OCCOc3ccccc3)c2)nc(O)c1[N+](=O)[O-]`: the IC50 is 200 nM. The IC50 under setting [1] was more than 50000 nM. This molecule yielded an IC50 under setting [2] of 160 nM.
For `COc1ccc(NC(=O)c2ccc(NC(=O)CN(c3ccccc3C)S(C)(=O)=O)cc2)cc1`, the 50% inhibitory concentration (IC50) is 25000 nM. In addition, under setting [1], the IC50 was 25000 nM. The molecule further showed an IC50 under setting [2] of 20000 nM.
On to `CCc1cccc(CC)c1-n1c(SCC(=O)N2CC(=O)Nc3ccccc32)nnc1-c1cccnc1`, for which the IC50 was 32000 nM. Moreover, under setting [1], the IC50 was more than 50000 nM. Under setting [2], this molecule showed an IC50 of 25000 nM.
For the molecule `COc1ccc2ncc(=O)n(CCN3CCOC(CNCc4ccc(C(F)(F)F)cc4F)C3)c2n1` (stereo not given), the IC50 was 1600 nM. Also, the IC50 under setting [1] was more than 50000 nM. This molecule came in with an IC50 under setting [2] of 630 nM.
Taken in the same sequence, the figures for `COc1ccc(C(=O)N2CCC(Nc3cccnc3)C2)c(OC)n1` (stereo not given) were 790 nM, more than 50000 nM and 790 nM.
In the case of `O=C(CN(Cc1ccccn1)Cc1ccccn1)NC1Cc2ccccc2C1`, the IC50 was 13000 nM. Under setting [1], this molecule came in with an IC50 of more than 79000 nM. This molecule also registered an IC50 under setting [2] of 6300 nM.
As to `O=C(Nc1nc2ccccc2[nH]1)c1c(O)c2cccc3c2n(c1=O)CC3`, the IC50 was 16000 nM. Under setting [1], this molecule gave an IC50 of 10000 nM. Further, the IC50 under setting [2] turned out to be 25000 nM.
In the case of `N#Cc1cccc(CN2CCC(c3nc(-c4ccc(C(F)(F)F)nc4)no3)CC2)c1`, the IC50 is 2000 nM. The molecule further yielded a half-maximal inhibitory concentration (IC50) under setting [1] of more than 50000 nM. For the same molecule, under setting [2], the IC50 is 2500 nM.
Take `O=C(CSc1ccc(-c2ccccn2)nn1)Nc1ccc(Cl)cc1`: the IC50 is 2500 nM. In addition, under setting [1], the IC50 is more than 50000 nM. The molecule further had an IC50 under setting [2] of 2000 nM.
